Data taken from patent publication US20210045385A1, “PYRIDAZINONE-SUBSTITUTED KETOXIMES AS HERBICIDES” (FMC Corporation, priority 2018, published 2021).

How the values were obtained:
Assay type in all cases: in vivo
[1] = tested on: Italian ryegrass (Lolium mutiflorum); assay: Test C preemergence, visual plant response rating
Outline: (§1)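 Visual injury on a 0 (no effect) to 100 (complete control) scale versus untreated controls, scored approximately 10 d after treatment under greenhouse conditions. Treatments used surfactant-containing non-phytotoxic solvent formulations, sprayed onto loam–sand soil preemergence or onto one- to two-leaf plants 2–10 cm tall postemergence.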

[2] = tested on: foxtail, giant (giant foxtail, Setaria faberi); assay: Test C preemergence, visual plant response rating
Outline: as §1

[3] = tested on: barnyardgrass (Echinochloa crus-galli); assay: Test C preemergence, visual plant response rating
Outline: as §1

[4] = tested on: ragweed (common ragweed, Ambrosia artemisiifolia); assay: Test C preemergence, visual plant response rating
Outline: as §1

[5] = tested on: pigweed (Amaranthus retroflexus); assay: Test C preemergence, visual plant response rating
Outline: as §1

kochia (Bassia scoparia) [6] = assay: Test C preemergence, visual plant response rating
Outline: as §1

rice (Oryza sativa) = assay: Test D flooded paddy test, visual plant response rating; settings: 250 g ai/ha, scale 0 to 100 (0 no effect, 100 complete control), 13 to 15 d
Outline: (§2)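 Rating is visual, on a 0 (no effect) to 100 (complete control) scale versus controls, taken 13 to 15 d after treatment in a greenhouse. Treatment went into paddy water kept 3 cm above the soil surface, with plants at the 2-leaf stage.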

[7] = tested on: barnyardgrass (Echinochloa crus-galli); assay: as above; settings: 250 g ai/ha, scale 0 to 100 (0 no effect, 100 complete control), 13 to 15 d
Outline: as §2

[8] = tested on: sedge umbrella (small-flower umbrella sedge, Cyperus difformis); assay: as above; settings: 250 g ai/ha, scale 0 to 100 (0 no effect, 100 complete control), 13 to 15 d
Outline: as §2

[9] = tested on: duck salad (Heteranthera limosa); assay: as above; settings: 250 g ai/ha, scale 0 to 100 (0 no effect, 100 complete control), 13 to 15 d
Outline: as §2

[10] = tested on: galium (catchweed bedstraw, Galium aparine); assay: Test C postemergence, visual plant response rating
Outline: as §1

corn (Zea mays) = assay: Test C postemergence, visual plant response rating
Outline: as §1

[11] = tested on: blackgrass (Alopecurus myosuroides); assay: Test C postemergence, visual plant response rating
Outline: as §1

[12] = tested on: Italian ryegrass (Lolium mutiflorum); assay: Test C postemergence, visual plant response rating
Outline: as §1

[13] = tested on: foxtail, giant (giant foxtail, Setaria faberi); assay: Test C postemergence, visual plant response rating
Outline: as §1

[14] = tested on: barnyardgrass (Echinochloa crus-galli); assay: Test C postemergence, visual plant response rating
Outline: as §1

[15] = tested on: ragweed (common ragweed, Ambrosia artemisiifolia); assay: Test C postemergence, visual plant response rating
Outline: as §1

[16] = tested on: pigweed (Amaranthus retroflexus); assay: Test C postemergence, visual plant response rating
Outline: as §1

[17] = tested on: wheat (Triticum aestivum); assay: Test C postemergence, visual plant response rating
Outline: as §1

kochia (Bassia scoparia) [18] = assay: Test C postemergence, visual plant response rating
Outline: as §1

[19] = Test C, 31 g ai/ha, 0 is no effect, 100 is complete control
[20] = Test C, postemergence, 125 g ai/ha

| SMILES | Ryegrass, Italian plant response rating (0 to 100 scale) ([1]; 125 g ai/ha) | Ryegrass, Italian plant response rating (0 to 100 scale) [1, 19] | Foxtail, Giant plant response rating (0 to 100 scale) ([2]; 125 g ai/ha) | Foxtail, Giant plant response rating (0 to 100 scale) [2, 19] | Barnyardgrass plant response rating (0 to 100 scale) ([3]; 125 g ai/ha) | Barnyardgrass plant response rating (0 to 100 scale) [3, 19] | Ragweed plant response rating (0 to 100 scale) ([4]; 125 g ai/ha) | Ragweed plant response rating (0 to 100 scale) [4, 19] | Pigweed plant response rating (0 to 100 scale) ([5]; 125 g ai/ha) | Pigweed plant response rating (0 to 100 scale) [5, 19] | Kochia plant response rating (0 to 100 scale) (kochia (Bassia scoparia) [6]; 125 g ai/ha) | Kochia plant response rating (0 to 100 scale) (kochia (Bassia scoparia) [6]; [19]) | Plant response rating, Rice (Flood) (rice (Oryza sativa)) | Plant response rating, Barnyardgrass (Flood) [7] | Plant response rating, Sedge, Umbrella (Flood) [8] | Plant response rating, Ducksalad (Flood) [9] | Galium plant response rating (0 to 100 scale) ([10]; Postemergence, 31 g ai/ha) | Galium plant response rating (0 to 100 scale) [10, 20] | Corn plant response rating (0 to 100 scale) (corn (Zea mays); Postemergence, 31 g ai/ha) | Corn plant response rating (0 to 100 scale) (corn (Zea mays); [20]) | further results |
| --- | --- | --- | --- | --- | --- | --- | --- | --- | --- | --- | --- | --- | --- | --- | --- | --- | --- | --- | --- | --- | --- |
| CON=C(c1cc(Cl)cc(OC)c1)c1c(O)c(C)nn(C)c1=O [Compound 175] | 50 | 30 | 70 | 30 | 70 | 50 | 100 | 40 | 30 | 0 | 80 | 40 | 0 | 0 | 0 | 0 | 90 | 100 | 10 | 20 | Blackgrass plant response rating (0 to 100 scale) ([11]; Postemergence, 31 g ai/ha): 20; Blackgrass plant response rating (0 to 100 scale) [11, 20]: 30; Ryegrass, Italian plant response rating (0 to 100 scale) ([12]; Postemergence, 31 g ai/ha): 50; Ryegrass, Italian plant response rating (0 to 100 scale) [12, 20]: 70; Foxtail, Giant plant response rating (0 to 100 scale) ([13]; Postemergence, 31 g ai/ha): 50; Foxtail, Giant plant response rating (0 to 100 scale) [13, 20]: 80; Barnyardgrass plant response rating (0 to 100 scale) ([14]; Postemergence, 31 g ai/ha): 50; Barnyardgrass plant response rating (0 to 100 scale) [14, 20]: 70; Ragweed plant response rating (0 to 100 scale) ([15]; Postemergence, 31 g ai/ha): 80; Ragweed plant response rating (0 to 100 scale) [15, 20]: 90; Pigweed plant response rating (0 to 100 scale) ([16]; Postemergence, 31 g ai/ha): 50; Pigweed plant response rating (0 to 100 scale) [16, 20]: 70; Wheat plant response rating (0 to 100 scale) ([17]; Postemergence, 31 g ai/ha): 0; Wheat plant response rating (0 to 100 scale) [17, 20]: 0; Kochia plant response rating (0 to 100 scale) (kochia (Bassia scoparia) [18]; Postemergence, 31 g ai/ha): 80; Kochia plant response rating (0 to 100 scale) (kochia (Bassia scoparia) [18]; [20]): 100 |
| CON=C(c1ccc(F)c(Br)c1)c1c(O)c(C)nn(C)c1=O [Compound 176] | 20 | 10 | 10 | 0 | 0 | 0 | 20 | 10 | 60 | 10 | 0 | 0 | 0 | 0 | 0 | 0 | 60 | 90 | 0 | 0 | Blackgrass plant response rating (0 to 100 scale) ([11]; Postemergence, 31 g ai/ha): 0; Blackgrass plant response rating (0 to 100 scale) [11, 20]: 30; Ryegrass, Italian plant response rating (0 to 100 scale) ([12]; Postemergence, 31 g ai/ha): 60; Ryegrass, Italian plant response rating (0 to 100 scale) [12, 20]: 90; Foxtail, Giant plant response rating (0 to 100 scale) ([13]; Postemergence, 31 g ai/ha): 10; Foxtail, Giant plant response rating (0 to 100 scale) [13, 20]: 20; Barnyardgrass plant response rating (0 to 100 scale) ([14]; Postemergence, 31 g ai/ha): 30; Barnyardgrass plant response rating (0 to 100 scale) [14, 20]: 40; Ragweed plant response rating (0 to 100 scale) ([15]; Postemergence, 31 g ai/ha): 30; Ragweed plant response rating (0 to 100 scale) [15, 20]: 70; Pigweed plant response rating (0 to 100 scale) ([16]; Postemergence, 31 g ai/ha): 70; Pigweed plant response rating (0 to 100 scale) [16, 20]: 80; Wheat plant response rating (0 to 100 scale) ([17]; Postemergence, 31 g ai/ha): 0; Wheat plant response rating (0 to 100 scale) [17, 20]: 0; Kochia plant response rating (0 to 100 scale) (kochia (Bassia scoparia) [18]; Postemergence, 31 g ai/ha): 20; Kochia plant response rating (0 to 100 scale) (kochia (Bassia scoparia) [18]; [20]): 70 |
| CON=C(c1ccc(F)c(Br)c1)c1c(O)c(C)nn(C)c1=O [Compound 177] | 10 | 0 | 10 | 0 | 60 | 40 | 20 | 0 | 10 | 0 | 0 | 0 | 0 | 0 | 0 | 0 | 40 | 80 | 0 | 0 | Blackgrass plant response rating (0 to 100 scale) ([11]; Postemergence, 31 g ai/ha): 0; Blackgrass plant response rating (0 to 100 scale) [11, 20]: 0; Ryegrass, Italian plant response rating (0 to 100 scale) ([12]; Postemergence, 31 g ai/ha): 30; Ryegrass, Italian plant response rating (0 to 100 scale) [12, 20]: 60; Foxtail, Giant plant response rating (0 to 100 scale) ([13]; Postemergence, 31 g ai/ha): 10; Foxtail, Giant plant response rating (0 to 100 scale) [13, 20]: 10; Barnyardgrass plant response rating (0 to 100 scale) ([14]; Postemergence, 31 g ai/ha): 0; Barnyardgrass plant response rating (0 to 100 scale) [14, 20]: 20; Ragweed plant response rating (0 to 100 scale) ([15]; Postemergence, 31 g ai/ha): 20; Ragweed plant response rating (0 to 100 scale) [15, 20]: 60; Pigweed plant response rating (0 to 100 scale) ([16]; Postemergence, 31 g ai/ha): 40; Pigweed plant response rating (0 to 100 scale) [16, 20]: 60; Wheat plant response rating (0 to 100 scale) ([17]; Postemergence, 31 g ai/ha): 0; Wheat plant response rating (0 to 100 scale) [17, 20]: 0; Kochia plant response rating (0 to 100 scale) (kochia (Bassia scoparia) [18]; Postemergence, 31 g ai/ha): 10; Kochia plant response rating (0 to 100 scale) (kochia (Bassia scoparia) [18]; [20]): 70 |
| C#CCON=C(c1ccc(Cl)c(Cl)c1)c1c(O)c(C)nn(C)c1=O [Compound 178] | 70 | 0 | 60 | 10 | 50 | 30 | 40 | 0 | 70 | 20 | 0 | 0 | 0 | 0 | 0 | 0 | 40 | 80 | 0 | 10 | Blackgrass plant response rating (0 to 100 scale) ([11]; Postemergence, 31 g ai/ha): 0; Blackgrass plant response rating (0 to 100 scale) [11, 20]: 30; Ryegrass, Italian plant response rating (0 to 100 scale) ([12]; Postemergence, 31 g ai/ha): 20; Ryegrass, Italian plant response rating (0 to 100 scale) [12, 20]: 90; Foxtail, Giant plant response rating (0 to 100 scale) ([13]; Postemergence, 31 g ai/ha): 10; Foxtail, Giant plant response rating (0 to 100 scale) [13, 20]: 30; Barnyardgrass plant response rating (0 to 100 scale) ([14]; Postemergence, 31 g ai/ha): 20; Barnyardgrass plant response rating (0 to 100 scale) [14, 20]: 50; Ragweed plant response rating (0 to 100 scale) ([15]; Postemergence, 31 g ai/ha): 0; Ragweed plant response rating (0 to 100 scale) [15, 20]: 40; Pigweed plant response rating (0 to 100 scale) ([16]; Postemergence, 31 g ai/ha): 20; Pigweed plant response rating (0 to 100 scale) [16, 20]: 40; Wheat plant response rating (0 to 100 scale) ([17]; Postemergence, 31 g ai/ha): 0; Wheat plant response rating (0 to 100 scale) [17, 20]: 80; Kochia plant response rating (0 to 100 scale) (kochia (Bassia scoparia) [18]; Postemergence, 31 g ai/ha): 40; Kochia plant response rating (0 to 100 scale) (kochia (Bassia scoparia) [18]; [20]): 70 |
